How the values were obtained:
peanut = experiment: Test G preemergence/postemergence greenhouse plant response rating 0 to 100; type: in vivo, Arachis hypoagaea; settings: 0 to 100 scale
Source text: (§1) Seeds, rhizomes, or plant parts of alfalfa (Medicago ativa), annual bluegrass (Poa annua), bermudagrass (Cynodon dactylon), broadleaf signalgrass (Brachiaria plantaginea), common purslane (Portulaca oleracea), common ragweed (Ambrosia elatior), […] (Paspalum dilatatum), goosegrass (Eleusine indica), guineagrass (Panicum maximum), […] exaltata), johnsongrass (Sorghum halepense), large crabgrass (Digitaria sanguinalis), peanut (Arachis hypoagaea), pitted morningglory (Ipomoea lacunosa), purple nutsedge (Cyperus rotundus), sandbur (Cenchrus echinatus), smooth crabgrass (Digitaria ischaemum) and yellow nutsedge (Cyperus esculentus) were planted into greenhouse pots containing greenhouse planting medium. Each pot contained only one plant species. The test compound was dissolved in a non-phytotoxic solvent and applied preemergence and/or postemergence to the plants. Preemergence applications were made within one day of planting the seeds or plant parts. Postemergence applications were applied when the plants were in the two to four leaf stage (three to twenty cm). Test chemicals were dissolved in a non-phytotoxic solvent and applied preemergence and postemergence to the plants. Untreated control plants and treated plants were placed in the greenhouse and visually evaluated for injury at 13 to 21 days after herbicide application. […] A dash (-) response indicates no test result.

soybean = experiment: Test B preemergence/postemergence greenhouse plant response rating 0 to 10; type: in vivo, Glycine max; settings: 0 to 10 scale
Outline: (§2)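 Test chemicals were sprayed onto freshly planted seed and, concurrently, onto young plants between the one and four leaf stage. After a twelve- to sixteen-day greenhouse period, each species was visually compared with untreated controls.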

wild oat = experiment: as above; type: in vivo, Avena fatua; settings: 0 to 10 scale
Outline: as §2

wheat = experiment: as above; type: in vivo, Triticum aestivum; settings: 0 to 10 scale
Outline: as §2

lambsquarters = experiment: as above; type: in vivo, Chenopodium album; settings: 0 to 10 scale
Outline: as §2

rice = experiment: as above; type: in vivo, Oryza sativa; settings: 0 to 10 scale
Outline: as §2

yellow nutsedge = experiment: Test G preemergence/postemergence greenhouse plant response rating 0 to 100; type: in vivo, Cyperus esculentus; settings: Rate 125 g/ha, 0 to 100 scale
Source text: as §1

wild buckwheat = experiment: Test B preemergence/postemergence greenhouse plant response rating 0 to 10; type: in vivo, Polygonum convolvulus; settings: 0 to 10 scale
Outline: as §2

| Structure (SMILES) | Plant response rating, Peanuts (peanut; POSTEMERGENCE, Rate 125 g/ha) | Plant response rating, Peanuts (peanut; POSTEMERGENCE, Rate 250 g/ha) | Plant response rating, Peanuts (peanut; PREEMERGENCE, Rate 125 g/ha) | Plant response rating, Peanuts (peanut; PREEMERGENCE, Rate 250 g/ha) | Plant response rating, Soybean (soybean; POSTEMERGENCE, Rate 50 g/ha) | Plant response rating, Soybean (soybean; POSTEMERGENCE, Rate 200 g/ha) | Plant response rating, Soybean (soybean; PREEMERGENCE, Rate 50 g/ha) | Plant response rating, Soybean (soybean; Rate 200 g/ha, PREEMERGENCE) | Plant response rating, Wild oat (wild oat; POSTEMERGENCE, Rate 50 g/ha) | Plant response rating, Wild oat (wild oat; POSTEMERGENCE, Rate 200 g/ha) | Plant response rating, Wild oat (wild oat; Rate 200 g/ha, PREEMERGENCE) | Plant response rating, Wheat (wheat; POSTEMERGENCE, Rate 50 g/ha) | Plant response rating, Wheat (wheat; POSTEMERGENCE, Rate 200 g/ha) | Plant response rating, Wheat (wheat; PREEMERGENCE, Rate 50 g/ha) | Plant response rating, Wheat (wheat; Rate 200 g/ha, PREEMERGENCE) | Plant response rating, Lambsquarter (lambsquarters; POSTEMERGENCE, Rate 50 g/ha) | Plant response rating, Lambsquarter (lambsquarters; POSTEMERGENCE, Rate 200 g/ha) | Plant response rating, Lambsquarter (lambsquarters; PREEMERGENCE, Rate 50 g/ha) | Plant response rating, Lambsquarter (lambsquarters; Rate 200 g/ha, PREEMERGENCE) | Plant response rating, Rice (rice; POSTEMERGENCE, Rate 50 g/ha) | other results |
| --- | --- | --- | --- | --- | --- | --- | --- | --- | --- | --- | --- | --- | --- | --- | --- | --- | --- | --- | --- | --- | --- |
| CCCOc1cc(-c2nn3c(c2Cl)CCCC3)c(F)cc1Cl [Compound 23] | 0 | 0 | 0 | 0 | 8 | 9 | 1 | 7 | 3 | 5 | 6 | 2 | 6 | 0 | 2 | 10 | 10 | 10 | 10 | 4 | Plant response rating, Rice (rice; POSTEMERGENCE, Rate 200 g/ha): 6; Plant response rating, Rice (rice; PREEMERGENCE, Rate 50 g/ha): 0; Plant response rating, Rice (rice; Rate 200 g/ha, PREEMERGENCE): 2; Plant response rating, Yellow Nutsedge (yellow nutsedge; POSTEMERGENCE): 0; Plant response rating, Yellow Nutsedge (yellow nutsedge; PREEMERGENCE): 0; Plant response rating, Wild buckwheat (wild buckwheat; POSTEMERGENCE, Rate 50 g/ha): 10; Plant response rating, Wild buckwheat (wild buckwheat; POSTEMERGENCE, Rate 200 g/ha): 10; Plant response rating, Wild buckwheat (wild buckwheat; PREEMERGENCE, Rate 50 g/ha): 0; Plant response rating, Wild buckwheat (wild buckwheat; Rate 200 g/ha, PREEMERGENCE): 10 |
| Fc1cc(Cl)c(OC2CCCC2)cc1-c1nn2c(c1Cl)CCCC2 [Compound 24] | 0 | 0 | 0 | 0 | 6 | 8 | 0 | 2 | 3 | 4 | 2 | 3 | 4 | 0 | 1 | 9 | 10 | 9 | 10 | 5 | Plant response rating, Rice (rice; POSTEMERGENCE, Rate 200 g/ha): 5; Plant response rating, Rice (rice; PREEMERGENCE, Rate 50 g/ha): 0; Plant response rating, Rice (rice; Rate 200 g/ha, PREEMERGENCE): 0; Plant response rating, Yellow Nutsedge (yellow nutsedge; POSTEMERGENCE): 0; Plant response rating, Yellow Nutsedge (yellow nutsedge; PREEMERGENCE): 0; Plant response rating, Wild buckwheat (wild buckwheat; POSTEMERGENCE, Rate 50 g/ha): 10; Plant response rating, Wild buckwheat (wild buckwheat; POSTEMERGENCE, Rate 200 g/ha): 10; Plant response rating, Wild buckwheat (wild buckwheat; PREEMERGENCE, Rate 50 g/ha): 3; Plant response rating, Wild buckwheat (wild buckwheat; Rate 200 g/ha, PREEMERGENCE): 5 |

Reference: US6358885B1, “Substituted phenylheterocyclic herbicides” (Mississippi State University, priority 1992, dated 2002)
